Results as given in ChEMBL document CHEMBL5291721, “A preclinical secondary pharmacology resource illuminates target-adverse drug reaction associations of marketed drugs” (Nat Commun, 2023).

Experiments:
[1] = biological target: T1, Alpha-1A adrenergic receptor (Homo sapiens, UniProt P35348); assay type: functional, cell-based
T1 sequence (P35348 whole entry): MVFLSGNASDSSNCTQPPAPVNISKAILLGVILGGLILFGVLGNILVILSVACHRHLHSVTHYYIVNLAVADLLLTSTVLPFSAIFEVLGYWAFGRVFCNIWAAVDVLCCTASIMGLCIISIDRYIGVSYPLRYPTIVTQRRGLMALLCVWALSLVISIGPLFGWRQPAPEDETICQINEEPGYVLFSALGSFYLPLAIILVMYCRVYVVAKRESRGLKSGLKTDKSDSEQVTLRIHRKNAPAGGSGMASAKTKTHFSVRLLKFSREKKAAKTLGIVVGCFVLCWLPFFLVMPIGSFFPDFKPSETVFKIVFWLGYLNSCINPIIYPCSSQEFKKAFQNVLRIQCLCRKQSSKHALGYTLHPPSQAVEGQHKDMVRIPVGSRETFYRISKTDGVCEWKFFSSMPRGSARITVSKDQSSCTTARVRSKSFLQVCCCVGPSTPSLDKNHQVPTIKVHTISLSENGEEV

[2] = biological target: T2, Alpha-2B adrenergic receptor (Homo sapiens, UniProt P18089)
T2 sequence (P18089 whole entry): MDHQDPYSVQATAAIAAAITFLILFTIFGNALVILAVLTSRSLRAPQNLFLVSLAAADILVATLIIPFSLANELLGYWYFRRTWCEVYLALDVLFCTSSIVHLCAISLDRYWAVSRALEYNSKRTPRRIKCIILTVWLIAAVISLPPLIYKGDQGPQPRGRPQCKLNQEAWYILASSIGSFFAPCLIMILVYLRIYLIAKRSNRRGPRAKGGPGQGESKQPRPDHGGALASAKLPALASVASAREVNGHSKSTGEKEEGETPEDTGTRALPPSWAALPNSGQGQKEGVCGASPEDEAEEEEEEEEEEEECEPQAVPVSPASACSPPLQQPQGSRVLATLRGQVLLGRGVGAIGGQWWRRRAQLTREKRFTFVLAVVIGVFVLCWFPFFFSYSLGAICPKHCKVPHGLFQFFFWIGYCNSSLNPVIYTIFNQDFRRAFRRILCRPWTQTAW

[3] = biological target: Cannabinoid receptor 1 (Homo sapiens, UniProt P21554); assay type: functional, cell-based
[4] = biological target: T3, Histamine H3 receptor (Homo sapiens, UniProt Q9Y5N1)
[5] = biological target: T4, Alpha-2A adrenergic receptor (Homo sapiens, UniProt P08913)
T4 sequence (P08913 whole entry): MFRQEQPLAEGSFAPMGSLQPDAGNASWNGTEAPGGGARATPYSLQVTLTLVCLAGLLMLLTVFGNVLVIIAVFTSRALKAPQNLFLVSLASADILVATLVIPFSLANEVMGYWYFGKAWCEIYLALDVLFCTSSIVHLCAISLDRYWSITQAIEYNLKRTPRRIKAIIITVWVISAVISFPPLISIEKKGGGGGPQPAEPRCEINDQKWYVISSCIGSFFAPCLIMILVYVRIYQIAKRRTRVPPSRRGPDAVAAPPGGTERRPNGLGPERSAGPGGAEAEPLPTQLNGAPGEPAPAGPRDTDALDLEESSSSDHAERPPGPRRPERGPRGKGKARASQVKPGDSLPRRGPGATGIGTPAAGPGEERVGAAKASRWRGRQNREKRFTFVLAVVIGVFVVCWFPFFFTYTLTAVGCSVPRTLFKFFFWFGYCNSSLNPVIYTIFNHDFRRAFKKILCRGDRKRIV

[6] = biological target: D(1A) dopamine receptor (Homo sapiens, UniProt P21728)
[7] = biological target: T3, Histamine H3 receptor; remark: listed apart in the source
[8] = biological target: T5, Thromboxane A2 receptor (Homo sapiens, UniProt P21731); assay type: functional, cell-based
T5 sequence (P21731 whole entry): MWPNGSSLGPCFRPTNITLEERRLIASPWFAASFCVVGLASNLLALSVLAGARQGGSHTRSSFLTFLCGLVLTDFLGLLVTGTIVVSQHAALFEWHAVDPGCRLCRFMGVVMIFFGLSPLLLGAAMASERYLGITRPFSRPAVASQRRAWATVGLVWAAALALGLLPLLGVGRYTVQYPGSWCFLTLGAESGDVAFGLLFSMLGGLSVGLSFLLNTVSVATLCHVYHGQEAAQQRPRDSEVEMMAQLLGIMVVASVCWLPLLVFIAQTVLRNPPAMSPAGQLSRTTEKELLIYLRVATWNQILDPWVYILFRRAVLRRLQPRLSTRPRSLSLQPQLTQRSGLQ

[9] = biological target: Kappa-type opioid receptor (Homo sapiens, UniProt P41145)
Further: assay procedure not described here.

D(1A) dopamine receptor, sequence (P21728 whole entry): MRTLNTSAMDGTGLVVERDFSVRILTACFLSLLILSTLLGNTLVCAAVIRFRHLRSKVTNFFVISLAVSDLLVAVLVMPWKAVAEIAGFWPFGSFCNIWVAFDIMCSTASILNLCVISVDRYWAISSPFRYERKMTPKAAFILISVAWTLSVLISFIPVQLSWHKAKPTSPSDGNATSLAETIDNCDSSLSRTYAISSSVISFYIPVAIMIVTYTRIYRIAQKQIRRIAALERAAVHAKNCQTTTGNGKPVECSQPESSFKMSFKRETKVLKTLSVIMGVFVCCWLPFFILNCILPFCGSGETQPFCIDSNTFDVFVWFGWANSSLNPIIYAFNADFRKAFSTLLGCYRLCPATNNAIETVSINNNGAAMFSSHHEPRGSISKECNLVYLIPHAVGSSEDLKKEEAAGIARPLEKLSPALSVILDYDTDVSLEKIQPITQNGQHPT
Cannabinoid receptor 1, sequence (P21554 whole entry): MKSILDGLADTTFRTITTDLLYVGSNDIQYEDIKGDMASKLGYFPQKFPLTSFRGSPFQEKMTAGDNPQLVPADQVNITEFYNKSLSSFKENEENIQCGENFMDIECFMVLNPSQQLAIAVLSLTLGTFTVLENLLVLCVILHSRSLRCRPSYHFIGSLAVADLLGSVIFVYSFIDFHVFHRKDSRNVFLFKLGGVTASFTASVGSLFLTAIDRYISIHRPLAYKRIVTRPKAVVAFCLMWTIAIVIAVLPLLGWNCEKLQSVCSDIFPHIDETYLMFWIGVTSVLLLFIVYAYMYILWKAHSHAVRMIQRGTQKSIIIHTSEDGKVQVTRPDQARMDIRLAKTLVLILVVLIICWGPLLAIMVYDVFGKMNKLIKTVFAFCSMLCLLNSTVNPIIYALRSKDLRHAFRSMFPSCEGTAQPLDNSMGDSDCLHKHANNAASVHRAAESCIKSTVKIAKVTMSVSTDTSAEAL
T3 sequence (Q9Y5N1 whole entry): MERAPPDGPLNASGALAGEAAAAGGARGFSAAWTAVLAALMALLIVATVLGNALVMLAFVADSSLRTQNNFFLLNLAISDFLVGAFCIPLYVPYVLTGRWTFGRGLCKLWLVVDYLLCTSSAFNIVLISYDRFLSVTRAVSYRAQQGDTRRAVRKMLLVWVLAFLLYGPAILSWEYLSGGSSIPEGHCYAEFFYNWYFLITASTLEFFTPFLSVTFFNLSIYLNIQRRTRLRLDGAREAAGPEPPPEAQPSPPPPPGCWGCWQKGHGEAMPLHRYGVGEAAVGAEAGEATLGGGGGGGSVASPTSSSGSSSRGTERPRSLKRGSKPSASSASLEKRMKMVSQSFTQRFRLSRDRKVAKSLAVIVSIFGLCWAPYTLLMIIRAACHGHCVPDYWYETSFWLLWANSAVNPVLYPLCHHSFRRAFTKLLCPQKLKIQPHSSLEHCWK
Kappa-type opioid receptor, sequence (P41145 whole entry): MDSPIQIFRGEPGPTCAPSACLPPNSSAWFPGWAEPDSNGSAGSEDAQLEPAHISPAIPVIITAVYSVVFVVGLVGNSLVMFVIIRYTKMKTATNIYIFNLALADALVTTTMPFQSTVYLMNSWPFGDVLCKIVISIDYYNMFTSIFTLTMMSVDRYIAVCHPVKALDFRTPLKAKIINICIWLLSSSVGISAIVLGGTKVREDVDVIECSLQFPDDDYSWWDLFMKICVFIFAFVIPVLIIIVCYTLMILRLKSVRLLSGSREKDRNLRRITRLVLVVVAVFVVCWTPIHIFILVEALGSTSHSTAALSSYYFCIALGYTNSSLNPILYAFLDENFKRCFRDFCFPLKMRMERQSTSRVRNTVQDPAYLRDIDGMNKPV

| SMILES | AC50 [1] [µM] | AC50 [2] [µM] | AC50 [3] [µM] | AC50 [4] [µM] | AC50 [5] [µM] | AC50 [6] [µM] | AC50 [7] [µM] | AC50 [8] [µM] | AC50 [9] [µM] |
| --- | --- | --- | --- | --- | --- | --- | --- | --- | --- |
| CN1CCCC(n2nc(Cc3ccc(Cl)cc3)c3ccccc3c2=O)CC1 (configuration not stated) [AZELASTINE] | > 30 | 3.8 | > 30 | 16 |  |  |  |  |  |
| O=C1c2c(O)c(=O)ccn2N([C@@H]2c3ccccc3SCc3c2ccc(F)c3F)[C@@H]2COCCN12 [BALOXAVIR] |  |  |  |  | > 30 | > 30 | > 30 | > 30 |  |
| C(=N\NC1=NCCN1)/c1c2ccccc2c(/C=N/NC2=NCCN2)c2ccccc12 [BISANTRENE] |  |  |  |  | 11.6 | 5.24 | > 30 | > 30 |  |
| CCO/N=C(\C(=O)N[C@@H]1C(=O)N2C(C(=O)[O-])=C(Sc3nc(-c4cc[n+](C)cc4)cs3)CS[C@H]12)c1nsc(N)n1 [CEFTAROLINE] |  |  |  |  | > 30 | > 30 | > 30 | > 30 |  |
| Cc1cc(O)cc(C)c1Cl [CHLOROXYLENOL] |  |  |  |  | > 30 | > 30 | > 30 | 28.3 |  |
| CC(=O)OCC(=O)[C@@]1(O)CC[C@H]2[C@@H]3CCC4=CC(=O)CC[C@]4(C)[C@H]3C(=O)C[C@@]21C [CORTISONE ACETATE] | > 30 |  | > 30 |  |  |  |  |  | > 30 |
| C[N+](C)(C)CCCCCCCCCC[N+](C)(C)C [DECAMETHONIUM] |  |  |  |  | > 30 | > 30 | > 30 | > 30 |  |
| O=C1c2ccccc2C(=O)C1C(=O)C(c1ccccc1)c1ccccc1 [DIPHENADIONE] |  |  |  |  | > 30 | > 30 | > 30 | 1.84 |  |
| CCC(=O)O[C@H]1[C@H](O[C@@H]2[C@@H](C)[C@H](O[C@H]3C[C@@](C)(OC)[C@@H](O)[C@H](C)O3)[C@@H](C)C(=O)O[C@H](CC)[C@@](C)(O)[C@H](O)[C@@H](C)C(=O)[C@H](C)C[C@@]2(C)O)O[C@H](C)C[C@@H]1N(C)C [ERYTHROMYCIN PROPIONATE] |  |  |  |  | > 30 | > 30 | > 30 | > 3 |  |
| CCOC(=O)c1ccc(O)cc1 [ETHYLPARABEN] |  |  |  |  | > 30 | > 30 | > 30 | > 30 |  |
| O=C1[C@H](CC[C@H](O)c2ccc(F)cc2)[C@@H](c2ccc(O)cc2)N1c1ccc(F)cc1 [EZETIMIBE] |  |  |  |  | > 30 | 29.4 | > 30 | 7.68 |  |
| O=C(COc1ccc(Cl)cc1)N1CCN(Cc2ccc3c(c2)OCO3)CC1 [FIPEXIDE] |  |  |  |  | 11.1 | > 30 | > 30 | 11.3 |  |
| Cc1c(-c2ccccc2)oc2c(C(=O)OCCN3CCCCC3)cccc2c1=O [FLAVOXATE] |  |  |  |  | 13.9 | > 30 | 24.6 | > 30 |  |
| CCC(=O)c1c(O)cc(O)cc1O [FLOPROPIONE] |  |  |  |  | > 30 | > 30 | > 30 | > 30 |  |
| CC1(C)O[C@@H]2C[C@H]3[C@@H]4C[C@H](F)C5=CC(=O)CC[C@]5(C)[C@H]4[C@@H](O)C[C@]3(C)[C@]2(C(=O)CO)O1 [FLURANDRENOLIDE] |  |  |  |  | > 30 | > 30 | > 30 | > 30 |  |
| CC(C)NNC(=O)c1ccncc1 [IPRONIAZID] | > 30 |  | > 30 | > 30 |  |  |  |  |  |
